Data on 19 compounds can be found in PubChem BioAssay (NCI).

What all share (experiment): inhibition of tumour cell growth, NCI panel, 48 h
Assay [1] has as its system M14 melanoma.
Assay [2] relates to SNB-75 CNS.
Assay [3] has as its system MOLT-4 leukemia.
The subject of assay [4] is HCT-15 colon.
Assay [5] has as its system U251 CNS.
Assay [6] deals with TK-10 renal.
Assay [7] concerns SK-MEL-28 melanoma.
The subject of assay [8] is UACC-62 melanoma.
For assay [9], the system named is HT29 colon.
Assay [10] has as its system HL-60(TB) leukemia.
Assay [11] deals with HOP-62 NSCLC.
For assay [12], the system named is NCI-H522 lung.
Assay [13] has as its system MDA-MB-231 breast.
The test system of assay [14] is K-562 leukemia.
Assay [15] has as its system SN12C renal.
In assay [16] the test system is SF-539 CNS.

Structures are written as SMILES.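 The compound was tested at five concentrations on cells cultured in 96-well plates, with a 48-hour exposure period. At the TGI there is no net growth.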

With `CCOC(=O)[C@@H]1CCN2CN(c3ccc(OC)cc3)N=C(c3ccccc3)[C@@]12c1ccccc1`, the TGI in [1] is 51.3 µM; in assay [2], 57.7 µM; in [3], over 100 µM; in [4], 80.6 µM; in assay [5] it was 79.6 µM; in assay [6], over 100 µM. For the same compound, the TGI in assay [7] is 56 µM; in assay [8] it was 35 µM; in assay [9] it was 72.4 µM; in assay [10], over 100 µM; in [11], 62.6 µM; in [12], 49.5 µM. In addition, the TGI is over 100 µM in assay [13], over 100 µM in [14] and 34.7 µM in assay [15].
Take `Cc1cc2nc(N3C(=O)/C(=C/c4ccccc4S)N=C3c3ccccc3)sc2cc1C`: the TGI in [1], in assay [2], in assay [3], in assay [4], in assay [16] and in assay [5] was over 100 µM in each case. The TGI in [6] is over 100 µM; in assay [7] it was over 100 µM; in [8], over 100 µM; in [9], 76.7 µM; in assay [10], 82 µM; in assay [11], over 100 µM. Besides, the TGI in [13] is 86 µM; in assay [14], over 100 µM; in assay [15], 82.6 µM.
For the compound `CCN(CC)c1c(-c2c(N(CC)CC)c(OC(C)=O)c3sccn3c2=O)c(=O)n2ccsc2c1OC(C)=O`, the TGI is over 100 µM in [1]; 39.3 µM in assay [2]; over 100 µM in assay [3]; over 100 µM in assay [4]; over 100 µM in assay [16]; over 100 µM in [5]. Moreover, the TGI is over 100 µM in [6]; over 100 µM in assay [7]; over 100 µM in assay [8]; over 100 µM in assay [9]; over 100 µM in [10]; 46.9 µM in assay [11]. Moreover, the TGI was 57 µM in [13], over 100 µM in assay [14] and over 100 µM in [15].
`O=C1C=CC2(O)OCCN(CCO)C2=C1` (configuration not stated) (tested in a mixture with another compound): the TGI in assay [1], in [2], in [3], in assay [4], in assay [5] and in assay [6] was over 100 µM each time. The TGI in assay [7], in assay [8], in [9], in assay [10], in assay [11] and in assay [12] was over 100 µM throughout. Moreover, the TGI in assay [13], in assay [14] and in [15] was over 100 µM throughout.
Regarding `Nc1ccc(CCSSCCc2ccc(N)cc2)cc1`, the TGI in assay [1] was over 74.2 µM; in assay [2] it was over 94.5 µM; in [3], 14.7 µM; in assay [4], over 67.9 µM; in assay [16] it was 63.5 µM; in assay [5], 41.6 µM. The TGI in assay [6] is over 100 µM; in [7], over 78.6 µM; in [8], 89.1 µM; in assay [9], 49.7 µM; in [11], over 100 µM; in assay [12], 34.9 µM. Moreover, the TGI in assay [13] was over 91.1 µM; in assay [14], over 62.3 µM; in [15], 60.1 µM.
With `COc1cc([C@H]2CC(=O)C[C@H](c3cc(OC)c(OC)c(OC)c3)C23C(=O)c2ccccc2C3=O)cc(OC)c1OC`, the TGI in assay [1], in [3], in assay [4], in [16], in assay [5] and in assay [6] was over 100 µM throughout. For the same compound, the TGI is over 100 µM in assay [7]; over 100 µM in assay [8]; over 100 µM in assay [9]; over 100 µM in assay [11]; 95.1 µM in [12]; over 100 µM in assay [13]. In addition, the TGI in assay [14] and in [15] was over 100 µM each time.
For `Cc1ccc(C2=C(C#N)C(=O)N3CCN=C3S2)cc1`, the TGI in assay [1], in assay [2], in assay [3], in [4], in assay [16] and in [5] was over 100 µM in each case. Further, the TGI in assay [6], in assay [7], in assay [8], in [9], in assay [12] and in assay [13] was over 100 µM throughout. Further, the TGI in assay [14] and in assay [15] was over 100 µM in each case.
In the case of `C=CCc1ccccc1CC1(OCC)OC(=O)c2ccccc21` (configuration not stated), the TGI in assay [1] was over 100 µM; in assay [2], 53.1 µM; in assay [3] it was over 100 µM; in assay [4], over 100 µM; in assay [16], over 100 µM; in assay [5], over 100 µM. Besides, the TGI in assay [6], in assay [7], in assay [8], in assay [9], in [11] and in [12] was over 100 µM each time. The TGI in assay [13], in assay [14] and in assay [15] was over 100 µM each time.
For `C[N+]1(Cc2ccc(Cl)c(Cl)c2)CCCC1C1CCCN(Cc2ccc(Cl)c(Cl)c2)C1` (configuration not stated), the TGI in [1], in assay [2], in assay [3], in [4], in [16] and in [5] was over 100 µM in each case. Moreover, the TGI in [6], in assay [7], in [8], in [9], in assay [11] and in [12] was over 100 µM in each case. In addition, the TGI in [13], in assay [14] and in [15] was over 100 µM each time.
As to `CC(C)=c1sc(=C(C)C)c2c1=NC(C)(C)N=2`, the TGI in assay [1], in [3], in [4], in assay [16], in assay [5] and in assay [6] was over 100 µM each time. Besides, the TGI in assay [7], in [8], in assay [9], in assay [10], in assay [11] and in [12] was over 100 µM in each case. Further, the TGI in assay [13] and in assay [15] was over 100 µM each time.
`CC(=O)N(C(C)=O)n1c(-c2ccccc2)n[nH]c1=O`: the TGI in [1], in [2], in assay [3], in [4], in assay [16] and in assay [5] was over 100 µM in each case. Further, the TGI in [6], in assay [7], in assay [8], in assay [9], in [11] and in assay [12] was over 100 µM throughout. Besides, the TGI in assay [13], in [14] and in assay [15] was over 100 µM in each case.
Consider `CC(=O)N1C(NN(C)C)CCN1c1ccccc1` (configuration not stated), for which the TGI in assay [1], in [2], in [3], in assay [4], in [6] and in assay [7] was over 10 µM in each case. In addition, the TGI in assay [8], in assay [9], in [10], in assay [11], in assay [13] and in assay [14] was over 10 µM in each case. In addition, in assay [15], the TGI was over 10 µM.
For the compound `COc1cc(/C=C2\C(=O)N(c3ccccc3Cl)C(c3ccccc3)S2(=O)=O)cc(OC)c1OC` (configuration not stated), the TGI in assay [1] was over 100 µM; in assay [3] it was 36.4 µM; in assay [4], over 100 µM; in assay [16], 38.3 µM; in assay [5] it was 81.8 µM; in assay [6], over 100 µM. In addition, the TGI in assay [7] was over 100 µM; in assay [8], over 100 µM; in [9], 52.2 µM; in [10] it was over 100 µM; in assay [11], over 100 µM; in [12], 46.5 µM. Also, the TGI was over 100 µM in assay [13], 94.9 µM in assay [14] and 60.6 µM in [15].
For `CN1CCCOC(c2ccc([N+](=O)[O-])cc2)O1` (configuration not stated), the TGI in assay [1], in [2], in assay [3], in assay [4], in [16] and in [5] was over 100 µM in each case. The TGI in assay [6], in [7], in assay [8], in assay [9], in [11] and in assay [12] was over 100 µM in each case. Also, the TGI in assay [13], in [14] and in assay [15] was over 100 µM each time.
In the case of `O=S(Nc1ccccc1)c1ccc(Cl)c(Cl)c1` (configuration not stated), the TGI is over 100 µM in assay [1]; over 100 µM in [3]; over 100 µM in [4]; 53 µM in assay [16]; 34.2 µM in assay [5]; over 100 µM in assay [6]. In addition, the TGI in assay [7] is over 100 µM; in [8], 64.6 µM; in [9] it was over 100 µM; in assay [10] it was over 100 µM; in assay [11] it was 79.1 µM; in assay [12], over 100 µM. For the same compound, the TGI in [13], in [14] and in assay [15] was over 100 µM throughout.
`COc1ccc(/C=C2\N=C(SC)N(CN3CCCCC3)C2=O)cc1`: the TGI in assay [1], in assay [2], in [3], in [4], in assay [5] and in [6] was over 100 µM in each case. The TGI in assay [7], in [8], in [9], in assay [11], in assay [12] and in [13] was over 100 µM throughout. Also, the TGI in assay [14] and in assay [15] was over 100 µM in each case.
`O=[N+]([O-])c1cc2c(c([N+](=O)[O-])c1)NCc1ccccc1O2`: the TGI in [2] is 48.2 µM; in assay [3], over 100 µM; in assay [4] it was over 100 µM; in assay [16], over 100 µM; in assay [5], over 100 µM; in assay [6] it was over 100 µM. The TGI in assay [7], in assay [8], in assay [9], in assay [10], in assay [11] and in assay [12] was over 100 µM each time. For the same compound, the TGI in [13] and in [15] was over 100 µM throughout.
For the compound `Cc1c(Cl)c(S(N)(=O)=O)cc2c1NC=NS2(=O)=O`, the TGI in assay [1], in assay [2], in assay [3], in [4], in assay [5] and in [6] was over 100 µM throughout. The TGI in assay [7], in assay [8], in assay [9], in assay [11], in assay [12] and in assay [13] was over 100 µM each time. Further, the TGI in assay [14] and in [15] was over 100 µM in each case.
Turning to `O=c1n(-c2ccccc2)c(=O)n2n1C1Cc3ccccc3C12` (configuration not stated), the TGI in [1], in assay [2], in assay [3], in assay [4], in [16] and in assay [5] was over 100 µM throughout. Further, the TGI in [6], in assay [7], in assay [8], in assay [9], in assay [10] and in assay [11] was over 100 µM each time. Besides, the TGI in assay [13], in assay [14] and in [15] was over 100 µM each time.
